{"source": "ChEMBL document CHEMBL1150605", "about": "“Isolation of a new mycalolide from the marine sponge Mycale izuensis” (J Nat Prod, 2002)", "test_system": "HeLa", "assay": "Cytotoxicity against human HeLa cells", "format": "functional, cell-based"}
{"smiles": "CO[C@H]1C/C=C/c2nc(co2)-c2nc(co2)-c2nc(co2)[C@@H](OC)[C@@H](C)C(=O)/C=C/C[C@H](O)CC(=O)O[C@@H](C[C@H](OC)[C@@H](C)CC[C@@H](O)[C@@H](C)[C@H](O)[C@H](C)/C=C/N(C)C=O)[C@@H]1C", "note": "[30,32-DIHYDROXYMYCALOLIDE A]", "values": [{"measurement": "IC50", "result": 2.6, "unit": "ng/mL"}]}
